# Measured values taken from US20240293361A1, “Use of Statins to Treat or Prevent Drug-Induced Hearing Loss” (The United States of America, as represented by the …, priority 2020, published 2024).
# Several values for one entry are separate records, joined by “and”; a condition that tells them apart may be missing. Equal values may be shown once. Entries after “also recorded” stand apart in the source; their conditions may differ.
# Experiments:
# [1] = test system: patients treated with atorvastatin; conditions: cited from earlier work
# [2] = test system: cisplatin-induced hearing loss in patients with head and neck cancer; assay: Clinical hearing status (PTA of 1, 2 and 4 kHz) at follow-up after cisplatin therapy; type: in vivo, human
# [3] = test system: cisplatin-induced hearing loss in patients with head and neck cancer
# Excerpt: (§1) The primary outcome measure was the difference in incidence of a change in hearing between the baseline hearing test and the post-treatment hearing test, per ear, as defined by established ototoxicity grading scales. These scales report subjects who transition from normal hearing to hearing loss as well as those who transition from some hearing loss to more hearing loss. The criteria of two different grading scales was applied to the dataset (Table 4). The NCI CTCAEv5.0(34) classifies adverse changes in hearing based on auditory threshold shifts across a 1-8 KHz frequency range. TUNE ototoxicity grading criteria (Theunissen et al., 2014), which incorporate extended high frequency (EHF) data was also applied (see Table 5, FIG. 5).
# Changes in hearing were primarily defined using CTCAEv5.0 criteria (Theunissen et al., 2014). However, cisplatin-induced ototoxicity is characterized initially as a high frequency (above 8 kHz) hearing loss that can spread to include lower frequencies (Brock et al., 1991). Therefore, the TUNE grading scale (Theunissen et al., 2014) was applied, which reports incidence and severity of hearing loss based on shifts in auditory thresholds across two frequency ranges: 1-4 kHz and 8-12.5 kHz (Table 4). The higher-frequency range of the TUNE scale was modified to include 6, 8 and 12.5 kHz due to insufficient data at 10 kHz in the dataset. Because many of the subjects had some hearing loss at baseline, the TUNE criteria was further modified so that Grades 3 and 4 utilized threshold shift data instead of absolute thresholds. A TUNE Grade 3 was redefined for this study as a ≥35 dB PTA threshold shift from the baseline to the post-treatment audiogram, and similarly Grade 4 was redefined as a ≥50 dB PTA threshold shift.
# (§2) Changes in hearing, defined by TUNE criteria, were analyzed using categorical incidence (per ear) data. The incidence and severity distribution of a clinically meaningful hearing change, per ear, relative to statin use was analyzed using chi-square analyses (SAS PROC FREQ procedure). […] A logistic regression analysis (SAS PROC LOGISTIC procedure) with calculation of odds ratios and 95% confidence intervals was performed to identify associations between TUNE-defined changes in hearing and statin use after adjustment for significant covariates.
# [4] = test system: cisplatin-induced hearing loss in patients with head and neck cancer; remark: listed apart in the source
# Excerpt: as §1
# as §2, with “The primary outcome measure was based on changes” for “Changes”, “hearing as” for “hearing,”, “CTCAEv5.0 scale criteria (see Table 4) and” for “TUNE criteria,”, “CTCAE-defined” for “TUNE-defined”
# patients with HNSCC = assay: 3-year overall and disease-free survival (Kaplan-Meier, log-rank); type: in vivo, human; conditions: URMC data n=175; log-rank (Mantel-Cox)
# Protocol: Overall survival and disease-free survival were calculated as Kaplan-Meier curves using Prism v8 software on all available data from URMC at up to 3 years post treatment (N=175). Survival curves were compared using the log-rank (Mantel-Cox) test. Cochlear radiation dose data presented in FIG. 6 were analyzed using Pearson R and Spearman R correlation analysis within Prism v8.
# Overall survival at 3 years was approximately 80% (FIG. 4). An exact median survival time could not be calculated due to the number of patients censored/lost to follow-up.
# [5] = test system: spiral ganglion neurons (SGN); conditions: mouse model of noise-induced hearing loss; cited from earlier work
# [6] = test system: cisplatin-induced hearing loss in patients with head and neck cancer; conditions: in vivo
# [7] = Schachter et al., 2005; cited from earlier work
# [8] = cited from earlier work; for hepatoselectivity: compared with lipophilic agents
# [9] = test system: cisplatin-induced hearing loss in mice; conditions: cyclic administration of cisplatin; ABR testing; cited from earlier work
# [10] = test system: heme oxygenase-1 (Hmox-1); conditions: mice; cited from earlier work
# [11] = test system: cytochrome P(450) enzymes; conditions: Schachter et al., 2005; cited from earlier work
# [12] = test system: low-density lipoprotein cholesterol; conditions: clinical studies, comparison among statins; cited from earlier work
# [13] = controlled for cumulative cisplatin dose and baseline hearing
# [14] = package insert, rate greater than placebo
smiles,measurement,setting,value
CC(C)c1c(C(=O)Nc2ccccc2)c(-c2ccccc2)c(-c2ccc(F)cc2)n1CC[C@@H](O)C[C@@H](O)CC(=O)[O-].CC(C)c1c(C(=O)Nc2ccccc2)c(-c2ccccc2)c(-c2ccc(F)cc2)n1CC[C@@H](O)C[C@@H](O)CC(=O)[O-].[Ca+2] [atorvastatin calcium],"incidence of persistent serum transaminase elevations, 10 mg","[1]; human, in vivo",0.2%
same,"incidence of persistent serum transaminase elevations, 20 mg","[1]; human, in vivo",0.2%
same,"incidence of persistent serum transaminase elevations, 40 mg","[1]; human, in vivo",0.6%
same,"incidence of persistent serum transaminase elevations, 80 mg","[1]; human, in vivo",2.3%
same,patients with persistent elevations (>3 times ULN on 2 or more occasions) in serum transaminases,"[1]; human, in vivo",0.7%
CC(C)c1c(C(=O)Nc2ccccc2)c(-c2ccccc2)c(-c2ccc(F)cc2)n1CC[C@@H](O)C[C@@H](O)CC(=O)O [atorvastatin],"hearing status at follow-up: Mild (PTA >20, <40), number of ears",[2]; post-cisplatin therapy,49 No. Ears
same,"hearing status at follow-up: Mild (PTA >20, <40), percent of ears",[2]; post-cisplatin therapy,(50.52) %
same,"hearing status at follow-up: Moderate (PTA ≥40, ≤70), number of ears",[2]; post-cisplatin therapy,21 No. Ears
same,"hearing status at follow-up: Moderate (PTA ≥40, ≤70), percent of ears",[2]; post-cisplatin therapy,(21.65) %
same,"hearing status at follow-up: Normal (PTA ≤20), number of ears",[2]; post-cisplatin therapy,26 No. Ears
same,"hearing status at follow-up: Normal (PTA ≤20), percent of ears",[2]; post-cisplatin therapy,(26.80) %
same,"hearing status at follow-up: Profound (PTA ≥95), number of ears",[2]; post-cisplatin therapy,3 No. Ears
same,"hearing status at follow-up: Profound (PTA ≥95), percent of ears",[2]; post-cisplatin therapy,(3.00) %
same,"hearing status at follow-up: Severe (PTA >70, <95), number of ears",[2]; post-cisplatin therapy,1 No. Ears
same,"hearing status at follow-up: Severe (PTA >70, <95), percent of ears",[2]; post-cisplatin therapy,(1.03) %
same,less likely to acquire a TUNE-defined cisplatin-induced hearing loss than a non-statin user,[3]; [13],56%
same,incidence of TUNE grade 2 or higher change in hearing,[3]; in vivo,14.4%
same,incidence of TUNE Grade 1 or higher hearing loss,[3]; percent of ears,34%
same,safety and tolerability of the 20 mg dose,"[1]; 20 mg once daily, adults, literature, listed as Atorvastatin",very low incidence of adverse effects
same,Food and Drug Administration pregnancy classification,"[1]; human, in vivo",Category X
same,alanine aminotransferase increase leading to treatment discontinuation,[1]; [14],0.4%
same,diarrhea leading to treatment discontinuation,[1]; [14],0.5%
same,hepatic enzyme increase leading to treatment discontinuation,[1]; [14],0.4%
same,myalgia leading to treatment discontinuation,[1]; [14],0.7%
same,nausea leading to treatment discontinuation,[1]; [14],0.4%
same,"hearing loss, CTCAEv5.0 Grade ≥2 criteria, retrospective data used for power analysis",[4]; atorvastatin (20 mg) group as worded,~16.7%
same,less likely to acquire a CTCAE-defined cisplatin-induced hearing loss than a non-statin user,[4]; [13],53%
same,"less likely to develop a cisplatin-related hearing loss, once daily atorvastatin vs not on atorvastatin",[4]; observational data,45%
same,"OR for cisplatin-related hearing loss, once daily atorvastatin vs not on atorvastatin","[4]; observational data, 95% CI: 0.327-0.942",0.55
same,"incidence of a CTCAEv5.0-grade hearing loss, patients","[4]; per patient, in at least one ear",46%
same,incidence of CTCAE grade ≥2 hearing change,[4]; percentage of ears,9.7%
same,incidence of CTCAE Grade 1 or higher hearing loss,"[4]; percentage of ears, full cohort",31.2% and 31%
same,"incidence of CTCAE-defined hearing loss, chemoradiation therapy","[4]; subgroup, % of ears",31.2%
same,"incidence of CTCAE-defined hearing loss, higher cumulative cisplatin doses (>200 mg/m^2)","[4]; subgroup, % of ears",31.7%
same,"incidence of CTCAE-defined hearing loss, males","[4]; subgroup, % of ears",30.4%
same,"incidence of CTCAE-defined hearing loss, mild hearing loss at baseline","[4]; subgroup, % of ears",26.8%
same,3-year disease-free survival compared with non-statin users,patients with HNSCC,no significant differences
same,3-year overall survival compared with non-statin users,patients with HNSCC,did not have a significant effect on patient survival; also recorded: no significant differences
same,elongation of SGN processes,[5],promoted the elongation of SGN processes
N.N.[Cl][Pt][Cl] [cisplatin],high-frequency threshold shift after cisplatin therapy,[6],13.7 dB
same,"individuals with clinically meaningful hearing loss after cisplatin therapy, TUNE criteria",[3]; in vivo,up to 53%
CC(C)n1c(/C=C/C(O)CC(O)CC(=O)O)c(-c2ccc(F)cc2)c2ccccc21 (stereo not drawn) [fluvastatin],lipophilicity,[7],relatively lipophilic
same,elimination half-life,"[8]; Schachter et al., 2005",1 h
CC[C@H](C)C(=O)O[C@H]1C[C@@H](C)C=C2C=C[C@H](C)[C@H](CC[C@@H]3C[C@@H](O)CC(=O)O3)[C@H]21 [lovastatin],lipophilicity,[7],relatively lipophilic
same,"hearing status at follow-up: Mild (PTA >20, <40), number of ears",[2]; post-cisplatin therapy,4 No. Ears
same,"hearing status at follow-up: Mild (PTA >20, <40), percent of ears",[2]; post-cisplatin therapy,(100.00) %
same,"hearing status at follow-up: Moderate (PTA ≥40, ≤70), number of ears",[2]; post-cisplatin therapy,0 No. Ears
same,"hearing status at follow-up: Normal (PTA ≤20), number of ears",[2]; post-cisplatin therapy,0 No. Ears
same,"hearing status at follow-up: Profound (PTA ≥95), number of ears",[2]; post-cisplatin therapy,0 No. Ears
same,"hearing status at follow-up: Severe (PTA >70, <95), number of ears",[2]; post-cisplatin therapy,0 No. Ears
same,effect on cisplatin-induced hearing loss / ototoxicity in mice,[9],reduces cisplatin-induced hearing loss; also recorded: reduced cisplatin ototoxicity
same,Hmox-1 mRNA,[10],induced Hmox-1 mRNA
same,elongation of SGN processes,[5],promoted the elongation of SGN processes
O=C(O)C[C@H](O)C[C@H](O)/C=C/c1c(C2CC2)nc2ccccc2c1-c1ccc(F)cc1 [pitavastatin],lipophilicity,[7],relatively lipophilic
same,"change of hearing status over cisplatin therapy, in words",[2]; n=2 subjects,started and ended therapy with a bilateral mild hearing loss
same,"hearing status at follow-up: Mild (PTA >20, <40), number of ears",[2]; post-cisplatin therapy,4 No. Ears
same,"hearing status at follow-up: Mild (PTA >20, <40), percent of ears",[2]; post-cisplatin therapy,(100.00) %
same,"hearing status at follow-up: Moderate (PTA ≥40, ≤70), number of ears",[2]; post-cisplatin therapy,0 No. Ears
same,"hearing status at follow-up: Normal (PTA ≤20), number of ears",[2]; post-cisplatin therapy,0 No. Ears
same,"hearing status at follow-up: Profound (PTA ≥95), number of ears",[2]; post-cisplatin therapy,0 No. Ears
same,"hearing status at follow-up: Severe (PTA >70, <95), number of ears",[2]; post-cisplatin therapy,0 No. Ears
same,metabolism by the cytochrome P(450) system,[11],limited metabolism
CC[C@H](C)C(=O)O[C@H]1C[C@H](O)C=C2C=C[C@H](C)[C@H](CC[C@@H](O)C[C@@H](O)CC(=O)O)[C@H]21 [pravastatin],lipophilicity,[7],relatively hydrophilic
same,"hearing status at follow-up: Mild (PTA >20, <40), number of ears",[2]; post-cisplatin therapy,8 No. Ears
same,"hearing status at follow-up: Mild (PTA >20, <40), percent of ears",[2]; post-cisplatin therapy,(33.33) %
same,"hearing status at follow-up: Moderate (PTA ≥40, ≤70), number of ears",[2]; post-cisplatin therapy,6 No. Ears
same,"hearing status at follow-up: Moderate (PTA ≥40, ≤70), percent of ears",[2]; post-cisplatin therapy,(25.00) %
same,"hearing status at follow-up: Normal (PTA ≤20), number of ears",[2]; post-cisplatin therapy,9 No. Ears
same,"hearing status at follow-up: Normal (PTA ≤20), percent of ears",[2]; post-cisplatin therapy,(37.50) %
same,"hearing status at follow-up: Profound (PTA ≥95), number of ears",[2]; post-cisplatin therapy,0 No. Ears
same,"hearing status at follow-up: Severe (PTA >70, <95), number of ears",[2]; post-cisplatin therapy,1 No. Ears
same,"hearing status at follow-up: Severe (PTA >70, <95), percent of ears",[2]; post-cisplatin therapy,(4.17) %
same,metabolism by the cytochrome P(450) system,[11],not significantly metabolized
same,hepatoselectivity,"[8]; Schachter et al., 2005",greater hepatoselectivity
CC(C)c1nc(N(C)S(C)(=O)=O)nc(-c2ccc(F)cc2)c1/C=C/[C@@H](O)C[C@@H](O)CC(=O)O [rosuvastatin],lipophilicity,[7],relatively hydrophilic
same,"hearing status at follow-up: Mild (PTA >20, <40), number of ears",[2]; post-cisplatin therapy,14 No. Ears
same,"hearing status at follow-up: Mild (PTA >20, <40), percent of ears",[2]; post-cisplatin therapy,(63.64) %
same,"hearing status at follow-up: Moderate (PTA ≥40, ≤70), number of ears",[2]; post-cisplatin therapy,6 No. Ears
same,"hearing status at follow-up: Moderate (PTA ≥40, ≤70), percent of ears",[2]; post-cisplatin therapy,(27.27) %
same,"hearing status at follow-up: Normal (PTA ≤20), number of ears",[2]; post-cisplatin therapy,2 No. Ears
same,"hearing status at follow-up: Normal (PTA ≤20), percent of ears",[2]; post-cisplatin therapy,(9.09) %
same,"hearing status at follow-up: Profound (PTA ≥95), number of ears",[2]; post-cisplatin therapy,0 No. Ears
same,"hearing status at follow-up: Severe (PTA >70, <95), number of ears",[2]; post-cisplatin therapy,0 No. Ears
same,metabolism by the cytochrome P(450) system,[11],not significantly metabolized
same,effectiveness for reducing low-density lipoprotein cholesterol,[12],most effective
same,hepatoselectivity,"[8]; Schachter et al., 2005",greater hepatoselectivity
CCC(C)(C)C(=O)O[C@H]1C[C@@H](C)C=C2C=C[C@H](C)[C@H](CC[C@@H]3C[C@@H](O)CC(=O)O3)[C@H]21 [simvastatin],half-life,"[8]; Sirtori et al., 2014",12 h
